# Test results published in patent US20260174858A1, “TARGETING THE m6A MRNA DEMETHYLASE FTO” (University of Virginia Patent Foundation, priority 2022, published 2026).
# Legend:
# Wild type C57BL/6J mice [1] = test: Serum cytokines release in the LPS model of sepsis (ELISA); format: in vivo, mouse; conditions: FTOi 20 mg/kg i.p., 10 mg/kg LPS, serum at 10 hours after LPS
# Method: Secreted IL-6 in the BMDMs medium or serum IL-6, TNF-alpha, and IL-1alpha were detected by ELISA (Mouse IL-1 alpha/IL-1F1 DuoSet, R&D Systems, DY400; Mouse IL-6 DuoSet, R&D Systems, DY406; Mouse TNF-alpha DuoSet, R&D Systems, DY410) according to the manufacturer's instructions.
# To induced septic shock model, male or female C57BL/6 mice (6 to 10 weeks old) were primed with 10 mg/kg poly(I:C) via intraperitoneal injection. 6 hours later, primed mice were injected with 10 mg/kg LPS and monitored three time daily for a total 5 days. For FTO inhibitor treatment, Wild type C57BL/6J mice were pretreated with 20 mg/kg FB23-2 for 16 hours before sepsis induction. Next day, 20 mg/kg FB23-2 together with 10 mg/kg poly(I:C) were intraperitoneally injected, following with LPS challenge at 6 hours after poly(I:C) priming.
# Wild type C57BL/6J mice [2] = test: Laser-induced choroidal neovascularization (CNV), CNV volume and F4/80 staining; format: in vivo, mouse; conditions: for Neovascularization (CNV volume): FTOi i.p. pretreatment plus 25 ng intravitreous after laser injury, day 7, isolectin B4 staining
# Method: Laser photocoagulation (532 nm, 180 mW, 100 ms, 75 μm) (OcuLight GL; IRIDEX Corp., Mountain View, CA, USA) was performed bilaterally (volume studies: 4 spots per eye; RNA analyses: 10 spots per eye) in 6- to 8-week-old mice on day 0 to induce CNV as previously described 1-3. For drug treatment, the mice pretreated with FTO inhibitor (FB23-2, SML2694, Sigma) or vehicle (DMSO) through intraperitoneal injection (i.p, 2 mg/kg). Then, the mice were subjected to laser photocoagulation followed by intravitreous injection of the FTO inhibitor (25 ng/0.5 μl per eye) or vehicle. At day 3 after laser injury, the mice were administered the FTO inhibitor (2 mg/kg) or vehicle via intraperitoneal injection. At day 7, the eyes were collected for fluorescein labeled-isolectin B4 and F4/80 staining and for neovascular volume quantification.
# RPE flat mounts were prepared as previously described 5. Briefly, at day 3 or 7 after laser injury, mice eyes were enucleated and dissected as retina and sclera-RPE-choroid complexes. The RPE-choroid sheets were immediately fixed in 4% paraformaldehyde (Electron Microscopy Sciences, 50-980-495, USA) in phosphate-buffered saline for 1 hour. […] As described previously^1, CNV volumes were determined by labeling with fluorescein labeled Griffonia Simplicifolia Lectin I (GSL I) isolectin B4 (Vector Laboratories, FL-1201, USA). […] FTO expression was visualized by immunolabeling with anti-FTO antibody (AdipoGen Life Sciences, AG-20A-0083, USA), and the specificity of labeling was assessed using isotype serum immunolabeling. […] Fluorescence images were captured by Nikon AIR laser scanning confocal microscope.
# Laser photocoagulation (532 nm, 180 mW, 100 ms, 75 μm) (OcuLight GL; IRIDEX Corp., Mountain View, CA, USA) was performed bilaterally (volume studies: four spots per eye; protein analyses: 20 spots per eye) in 6- to 8-week-old male mice on day 0 to induce CNV in a masked fashion. […] Choroidal neovascularization was visualized using a blue argon laser wavelength (488 nm) and a scanning laser confocal microscope and quantified using Image J software.
# Vegfa mRNA = test: MeRIP-qPCR of m6A methylated Vegfa mRNA in BMDMs; format: cell-based, mouse; conditions: BMDMs treated with FTOi vs DMSO, MeRIP and qPCR
# Method: To validate m6A methylation of Vegfa mRNA and perturbations induced by FTOi treatment, we performed MeRIP-qPCR by following the EpiMark® N6-Methyladenosine Enrichment Kit protocol (New England Biolabs, E1610S, USA). Briefly, total RNA was extracted from mouse BMDMs treated with 5 μM of FTO inhibitor or vehicle for 24 hours by using TRIzol™ Reagent (Thermo Fisher Scientific, 15596018, USA). 100 μg of total RNA from each group was mixed with unmodified RNA (Negative control, NC). Next, 20 μg of these mixtures was incubated with m6A antibody (Cell Signaling Technology, D9D9W, USA) and then pulled down using Pierce™ Protein A/G Magnetic Beads (Thermo Fisher Scientific, 88802, USA) overnight. The enriched m6A positive RNAs were then eluted and purified by NucleoSpin RNA Clean-Up (Macherey-Nagel, 740948.25, USA), and the amounts of m6A-modified Vegfa mRNA or negative control RNAs were determined by reverse transcription and qPCR.
# macrophage = test: mRNA abundance of other pro-angiogenic factors in macrophages (RT-PCR); format: cell-based, mouse; conditions: FTO inhibition
# Method: Total RNA was extracted from mouse BMDMs or eye tissues with TRIzol™ Reagent (Thermo Fisher Scientific, 15596018, USA) and quantified by using a NanoDrop 2000 spectrophotometer (Thermo-Fisher Scientific, USA). Reverse transcription was performed using the QuantiTect Reverse Transcription kit (205313, QIAGEN). Target genes were amplified by real-time quantitative polymerase chain reaction (PCR) (Applied Biosystems, 7900 HT Fast Real-Time PCR system) with Power SYBR Green Master Mix. Relative gene expression was determined by the 2^−ΔΔCt method, and 18S rRNA or GAPDH (glyceraldehyde-3-phosphate dehydrogenase) was used as an internal control.
smiles,measurement,setting,value
Cc1noc(C)c1-c1cc(Cl)c(Nc2ccccc2C(=O)NO)c(Cl)c1 [FB23-2],"Serum cytokines release (IL-6, TNF-α, IL-1α)",Wild type C57BL/6J mice [1],impairs serum cytokines release
same,Neovascularization (CNV volume),Wild type C57BL/6J mice [2],inhibits angiogenesis
same,Neovascularization (CNV volume),Wild type C57BL/6J mice [2]; listed as selective inhibitor,significant reduction in neovascularization
same,F4/80 macrophage recruitment,"Wild type C57BL/6J mice [2]; laser-induced CNV, FTO inhibitor in vivo, F4/80 staining",not in F4/80 macrophage recruitment
same,Level of m6A methylated Vegfa mRNA,Vegfa mRNA,increase the level of methylated (m6A) VEGFA mRNA
same,Level of m6A methylated Vegfa mRNA,Vegfa mRNA; listed as FTO inhibitor,significantly increased the abundance of m6A methylated Vegfa mRNA
same,"mRNA abundance of other pro-angiogenic factors (Plgf, Pdgfa)",macrophage,did not significantly alter the mRNA abundance
